Assay results from patent US20150238494A1, “HIGHLY SOLUBLE PURINE BIOACTIVE COMPOUNDS AND COMPOSITIONS THEREOF” (JHO Intellectual Property Holdings, LLC, priority 2014, published 2015).

Key:
[1] = Stability of theacrine solution 1.3 mg/ml in USP Type I glass vials, 15 weeks at RT and 40° C.; format: physicochemical; conditions: 1.3 mg/ml solution, in % (unit assumed)
Experimental: The Table 1 below is data indicating assay results for stability of a theacrine solution prepared at 1.3 mg/ml and stored in USP Type I Glass vials for 15 weeks at RT and 40° C.

[2] = Stability of theacrine solutions 0.1%, 0.2%, 0.4% in USP type I glass vials, 3 months at 40° C.; format: physicochemical; conditions: Storage 40 C., in % (unit assumed)

Assay ([1]; Room Temperature (RT), 1-wk): 98.7 | Assay ([1]; Room Temperature (RT), 2-wk): 100.1 | Assay ([1]; Room Temperature (RT), 4-wk): 99.2 | Assay ([1]; Room Temperature (RT), 8-wk): 99.9 | Assay ([1]; Room Temperature (RT), 15-wk): 99.3 | Assay ([1]; Room Temperature (RT), Initial): 99.6 | Assay ([1]; Storage 40 C., 1-wk): 98.2 | Assay ([1]; Storage 40 C., 2-wk): 98.9 | Assay ([1]; Storage 40 C., 4-wk): 98.7 | Assay ([1]; Storage 40 C., 8-wk): 98.6 | Assay ([1]; Storage 40 C., 15-wk): 98.0 | Assay ([1]; Storage 40 C., Initial): 99.6 | Assay value ([2]; 0.1% Solution, 1-M): 101 | Assay value ([2]; 0.1% Solution, 2-M): 100.4 | Assay value ([2]; 0.1% Solution, 3-M): 100.7 | Assay value ([2]; 0.1% Solution, 10-d): 100.4 | Assay value ([2]; 0.1% Solution, Initial): 100.6 | Assay value ([2]; 0.2% Solution, 1-M): 98.9 | Assay value ([2]; 0.2% Solution, 2-M): 97.5 | Assay value ([2]; 0.2% Solution, 3-M): 99.4 | Assay value ([2]; 0.2% Solution, 10-d): 98.6 | Assay value ([2]; 0.2% Solution, Initial): 99.8 | Assay value ([2]; 0.4% Solution, 1-M): 94.9 | Assay value ([2]; 0.4% Solution, 2-M): 95.3 | Assay value ([2]; 0.4% Solution, 3-M): 95.8 | Assay value ([2]; 0.4% Solution, 10-d): 92.3 | Assay value ([2]; 0.4% Solution, Initial): 94.1
Compound: Cn1c(=O)c2c(n(C)c1=O)n(C)c(=O)n2C [Theacrine, 1,3,7,9-Tetramethyluric acid]
